Results from US9951056B2, “Substituted nicotinamide inhibitors of BTK and their preparation and use in the treatment of cancer, inflammation and autoimmune disease” (BEIJING INNOCARE PHARMA TECH CO., LTD., priority 2013, dated 2018).

What follows are compounds tested against BTK (Homo sapiens (Human), UniProt Q06187) (assay: ADP-Glo kinase biochemical assay, IC50 determination of BTK inhibitors). Conditions: ADP-Glo, ATP 50 uM; values given as bins.
Chain of BTK (Q06187 whole entry): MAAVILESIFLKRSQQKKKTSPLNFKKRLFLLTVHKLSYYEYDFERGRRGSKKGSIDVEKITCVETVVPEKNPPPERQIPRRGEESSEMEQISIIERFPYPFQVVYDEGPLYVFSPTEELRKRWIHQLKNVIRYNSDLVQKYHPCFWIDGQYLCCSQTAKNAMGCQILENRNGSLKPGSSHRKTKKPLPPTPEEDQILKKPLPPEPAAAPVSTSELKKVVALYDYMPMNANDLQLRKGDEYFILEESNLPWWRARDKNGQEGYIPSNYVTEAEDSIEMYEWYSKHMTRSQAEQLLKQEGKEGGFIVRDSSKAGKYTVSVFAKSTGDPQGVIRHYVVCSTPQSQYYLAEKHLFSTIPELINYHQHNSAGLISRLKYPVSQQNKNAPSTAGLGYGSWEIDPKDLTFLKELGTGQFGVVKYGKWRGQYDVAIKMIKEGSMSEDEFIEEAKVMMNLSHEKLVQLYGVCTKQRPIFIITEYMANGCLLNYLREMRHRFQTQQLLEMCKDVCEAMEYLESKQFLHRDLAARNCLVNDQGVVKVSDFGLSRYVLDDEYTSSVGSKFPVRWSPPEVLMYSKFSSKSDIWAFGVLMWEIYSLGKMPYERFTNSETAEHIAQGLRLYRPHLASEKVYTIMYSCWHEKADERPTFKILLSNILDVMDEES
Method: Biological Properties: IC50 Determination of BTK Inhibitors in ADP-Glo Kinase Biochemical Assay
Those skilled in the art will appreciate that a variety of assay formats may be used to determine the activity of the compounds described herein.
ADP-Glo™ Kinase Assay (Cat. V9102, 10000 Tests), Components: • 1×50 ml ADP-Glo™ Reagent, • 1×100 ml Kinase Detection Buffer, • 1× Kinase Detection Substrate (Lyophilized), • 1×5 ml Ultra Pure ATP, 10 mM • 1×5 ml ADP, 10 mM
• Enzyme concentration: 8 ng/5 ul. • ATP concentration: 50 uM • Substrate (peptide) concentration: 0.2 mg/ml. • Reaction buffer composition: 40 mM Tris-HCl pH7.5, 10 mM MgCl2, 2 mM MnCl2, 0.1 mg/mL BSA, 0.05 mM DTT. • Test compound concentration: DMSO≤0.5%. Methods: Compound Dosage Gradient Solution Preparation: […]
1× and 2× assay buffer were made at first. BTK kinase was diluted with 1× assay buffer but substrate was diluted with 2× assay buffer. 1 ul of diluted compound was transferred into 384-well assay plate, and then 2.0 ul of enzyme solution was added, and spun at 2000 rpm for 1 min. This mixture was incubated at 24° C. for 30 mins. 2 ul of peptide substrate/ATP mixture was added into the assay plate to start the reaction. The mixture was mixed thoroughly and then the 384-well plate was spun and incubated at 24° C. for 60 mins. 5.0 ul of ADP-Glo Reagent was added to stop the kinase activity and deplete the ATP unconsumed, and the plate was mixed thoroughly and incubated at 24° C. for 40 min. Then, 10.0 ul of Kinase Detection reagent was added, and the plate was centrifuged and then kept at 24° C. for 30 min. The luminescence signal was read on Envision.
IC50 values of compounds were calculated from a 4-parameter fit using Equation (2): Y=Bottom+(TOP-Bottom)/(1+((C/X)^hillslope)) Equation (2)
In Equation 2, Y represents % inhibition, X is the log value of the test compound concentration. IC50 was the concentration of compound where half of maximal inhibition was achieved.
All data was analyzed with IDBS XLfit5 software (ID Business Solutions Ltd., UK).
C=CC(=O)N1CCN(c2ccc(C(N)=O)c(-c3ccc(Oc4ccccc4)cc3)n2)CC1 [Example 5, 6-(4-acryloylpiperazin-1-yl)-2-(4-phenoxyphenyl)nicotinamide] was tested, and the IC50 was under 500 nM.
Compound C=CC(=O)N1CCN(c2ccc(C(N)=O)c(-c3ccc(Oc4ccc(F)cc4)cc3)n2)CC1 [Example 37, 6-(4-acryloylpiperazin-1-yl)-2-(4-(4-fluorophenoxy)phenyl)nicotinamide] has an IC50 of under 500 nM.
With C/C=C(\C#N)C(=O)N1CC(n2cc(C(N)=O)c(-c3ccc(Oc4ccccc4)cc3)n2)C1 [Example 59, (E)-1-(1-(2-cyanobut-2-enoyl)azetidin-3-yl)-3-(4-phenoxyphenyl)-1H-pyrazole-4-carboxamide] the IC50 was under 500 nM.
C=CC(=O)N1CCN(c2ccc(C(N)=O)c(-c3ccc(Oc4ccccc4)c(F)c3)n2)CC1 [Example 36, 6-(4-acryloylpiperazin-1-yl)-2-(3-fluoro-4-phenoxyphenyl)nicotinamide] showed an IC50 of under 500 nM.
Work on C=CC(=O)N1CCN(c2ccc(C(N)=O)c(-c3ccc(Oc4ccc(C#N)cc4)cc3)n2)CC1 [Example 27, 6-(4-acryloylpiperazin-1-yl)-2-(4-(4-cyanophenoxy)phenyl)nicotinamide] yielded an IC50 of at least 1000 nM.
With C=CC(=O)N1CCN(c2ccc(C(N)=O)c(-c3ccc(Oc4ccccc4)cc3)c2)CC1 [Example 57, 5-(4-acryloylpiperazin-1-yl)-4′-phenoxybiphenyl-2-carboxamide] the IC50 was under 500 nM.
Compound C=CC(=O)N1CCN(c2ccc(C(N)=O)c(-c3ccc(C)c(OC)c3)n2)CC1 [Example 29, 6-(4-acryloylpiperazin-1-yl)-2-(3-methoxy-4-methylphenyl)nicotinamide] has an IC50 of under 500 nM.
With C=CC(=O)N1CCN(c2ccc(C(N)=O)c(-c3ccc(OC4CCCCC4)cc3)n2)CC1 [Example 28, 6-(4-acryloylpiperazin-1-yl)-2-(4-(cyclohexyloxy)phenyl)nicotinamide] the IC50 was under 500 nM.
NC(=O)c1cn(C2CNC2)nc1-c1ccc(Oc2ccccc2)cc1 [Example 14, 1-(azetidin-3-yl)-3-(4-phenoxyphenyl)-1H-pyrazole-4-carboxamide] gave an IC50 of at least 1000 nM.
With C=CC(=O)N1CCC(c2ncc(C(N)=O)c(-c3ccc(Oc4ccccc4)cc3)n2)CC1 [Example 21, 2-(1-acryloylpiperidin-4-yl)-4-(4-phenoxyphenyl)pyrimidine-5-carboxamide] the IC50 was under 500 nM.
Work on C=CC(=O)N1CCC(c2ncc(C(N)=O)c(-c3ccc(Oc4ccccc4)cc3)n2)C1 (centres unmarked) [Example 22, 2-(1-acryloylpyrrolidin-3-yl)-4-(4-phenoxyphenyl)pyrimidine-5-carboxamide] yielded an IC50 of under 500 nM.
With C=CC(=O)N1CCCC(c2nc(-c3ccc(Oc4ccccc4)cc3)c(C(N)=O)s2)C1 (centres unmarked) [Example 40, 2-(1-acryloylpiperidin-3-yl)-4-(4-phenoxyphenyl)thiazole-5-carboxamide] the IC50 was under 500 nM.
Compound CN(C)C/C=C/C(=O)N1CCN(c2ccc(C(N)=O)c(-c3ccc(Oc4ccccc4)cc3)n2)CC1 [Example 25, (E)-6-(4-(4-(dimethylamino)but-2-enoyl)piperazin-1-yl)-2-(4-phenoxyphenyl)nicotinamide] has an IC50 of under 500 nM.
Compound C=CC(=O)Nc1ccc(-n2cc(C(N)=O)c(-c3ccc(Oc4ccccc4)cc3)n2)cc1 [Example 16, 1-(4-acrylamidophenyl)-3-(4-phenoxyphenyl)-1H-pyrazole-4-carboxamide] has an IC50 of under 500 nM.
C=CC(=O)N1CCC(c2ccc(C(N)=O)c(-c3ccc(Oc4ccccc4)cc3)n2)C1 (centres unmarked) [Example 23, 6-(1-acryloylpyrrolidin-3-yl)-2-(4-phenoxyphenyl)pyridine-3-carboxamide] gave an IC50 of under 500 nM.
C=CC(=O)Nc1cccc(-n2cc(C(N)=O)c(-c3ccc(Oc4ccccc4)cc3)n2)c1 [Example 18, 1-(3-acrylamidophenyl)-3-(4-phenoxyphenyl)-1H-pyrazole-4-carboxamide] gave an IC50 of under 500 nM.
Compound C=CC(=O)N1CCN(c2ccc(C(N)=O)c(-c3ccc(Oc4ccccc4F)cc3)n2)CC1 [Example 38, 6-(4-acryloylpiperazin-1-yl)-2-(4-(2-fluorophenoxy)phenyl)nicotinamide] has an IC50 of under 500 nM.
Work on C=CC(=O)N1CCN(c2ccc(C(N)=O)c(-c3ccc(Oc4ccccn4)cc3)n2)CC1 [Example 32, 6-(4-acryloylpiperazin-1-yl)-2-(4-(pyridin-2-yloxy)phenyl)nicotinamide] yielded an IC50 of under 500 nM.
C=CS(=O)(=O)N1CCN(c2ccc(C(N)=O)c(-c3ccc(Oc4ccccc4)cc3)n2)CC1 [Example 62, 2-(4-phenoxyphenyl)-6-(4-(vinylsulfonyl)piperazin-1-yl)nicotinamide] gave an IC50 of under 500 nM.
In the case of C=CC(=O)N1CCC(c2ccc(C(N)=O)c(-c3ccc(C(O)c4ccccc4)cc3)n2)CC1 (centres unmarked) [Example 58, 6-(1-acryloylpiperidin-4-yl)-2-(4-(hydroxy(phenyl)methyl)phenyl)nicotinamide], the IC50 is reported as under 500 nM.
In the case of C=CC(=O)N1CCC(n2cc(C(N)=O)c(-c3ccc(Oc4ccccc4)cc3)n2)CC1 [Example 12, 1-(1-acryloylpiperidin-4-yl)-3-(4-phenoxyphenyl)-1H-pyrazole-4-carboxamide], the IC50 is reported as under 500 nM.
For C=CC(=O)N1CCC(c2cc(C(N)=O)nn2-c2ccc(Oc3ccccc3)cc2)CC1 [Example 56, 5-(1-acryloylpiperidin-4-yl)-1-(4-phenoxyphenyl)-1H-pyrazole-3-carboxamide], the IC50 was at least 1000 nM.
Compound C=CC(=O)N1CCN(c2nc(-c3ccc(Oc4ccccc4)cc3)c(C(=O)NC)s2)CC1 [Example 47, 2-(4-acryloylpiperazin-1-yl)-N-methyl-4-(4-phenoxyphenyl)thiazole-5-carboxamide] has an IC50 of under 500 nM.
C=CC(=O)N1CC[C@H](n2cc(C(N)=O)c(-c3ccc(Oc4ccccc4)cc3)n2)C1 [Example 19, (S)-1-(1-acryloylpyrrolidin-3-yl)-3-(4-phenoxyphenyl)-1H-pyrazole-4-carboxamide] gave an IC50 of under 500 nM.

Same assay, conditions: BTK, head-to-head assays
For C=CC(=O)N1CCN(c2ccc(C(N)=O)c(-c3ccc(Oc4ccccc4)cc3)n2)CC1 [Example 5, 6-(4-acryloylpiperazin-1-yl)-2-(4-phenoxyphenyl)nicotinamide], the “improvement in potency over Analogs 1 and 2” value was about 100 ×.

These compounds were tested against SRC (Homo sapiens (Human), UniProt P12931) (assay: kinase competition binding screen (liganded affinity beads, qPCR) at 1000 nM). Conditions: BTK versus SRC.
Chain of SRC (P12931 whole entry, looked up): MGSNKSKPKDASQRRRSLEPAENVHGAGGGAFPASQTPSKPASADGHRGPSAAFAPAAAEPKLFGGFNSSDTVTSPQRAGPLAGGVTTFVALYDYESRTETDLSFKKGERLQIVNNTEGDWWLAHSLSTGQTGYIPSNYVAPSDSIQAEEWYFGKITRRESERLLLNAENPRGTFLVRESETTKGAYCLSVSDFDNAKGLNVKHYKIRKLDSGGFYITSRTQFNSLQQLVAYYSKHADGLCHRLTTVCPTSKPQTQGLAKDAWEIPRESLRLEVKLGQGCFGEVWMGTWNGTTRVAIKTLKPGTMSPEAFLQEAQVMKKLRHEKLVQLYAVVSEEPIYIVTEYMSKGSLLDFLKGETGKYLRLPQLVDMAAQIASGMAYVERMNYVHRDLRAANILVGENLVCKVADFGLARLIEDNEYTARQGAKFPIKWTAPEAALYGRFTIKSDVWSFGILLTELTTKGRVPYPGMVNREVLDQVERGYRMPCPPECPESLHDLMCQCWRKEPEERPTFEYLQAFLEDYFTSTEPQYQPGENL
With C=CC(=O)N1CCN(c2ccc(C(N)=O)c(-c3ccc(Oc4ccccc4)cc3)n2)CC1 [Example 5, 6-(4-acryloylpiperazin-1-yl)-2-(4-phenoxyphenyl)nicotinamide] the “Fold Difference” value was over 100x.
